Results on 18 molecules are retold here after PubChem BioAssay AID200 (DTP/NCI, 2004).

“And” between values parts separate entries of the source, which are not always exact repeats. Equal values may be shown once. Toxic doses and inconclusive results are not listed. Where a SMILES comes first, the peptide text is derived from it. The star is where a group is joined. Cbz = O=C(OCc1ccccc1)*

The test relates to B6C3F1 mice, B16 melanoma ip, median survival T/C. In words: NCI In Vivo Anticancer Drug Screen. Data for tumor model B16 Melanoma (intraperitoneal) in B6C3F1 mice. The conditions noted are these: endpoint: median survival time, higher = longer survival. The method, boiled down:
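Mice bearing transplanted tumor were dosed with compound or vehicle, and survival was recorded. Activity is expressed as the treated-group measurement (T) divided by the vehicle control measurement (C).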

Setting [1] is: dose: 25.0 mg/kg/injection, schedule: Q01DX009 (ip), vehicle: saline with Tween-80.
Where [2] appears, read: dose: 50.0 mg/kg/injection, schedule: Q01DX009 (ip), vehicle: saline with Tween-80.
Where [3] appears, read: dose: 100.0 mg/kg/injection, schedule: Q01DX009 (ip), vehicle: Klucel (hydroxypropylcellulose) (HPC).
Where [4] appears, read: dose: 200.0 mg/kg/injection, schedule: Q01DX009 (ip), vehicle: Klucel (hydroxypropylcellulose) (HPC).
Where [5] appears, read: dose: 400.0 mg/kg/injection, schedule: Q01DX009 (ip), vehicle: Klucel (hydroxypropylcellulose) (HPC).
Where [6] appears, read: dose: 3.12 mg/kg/injection, schedule: Q01DX009 (ip), vehicle: water.
[7] abbreviates: dose: 6.25 mg/kg/injection, schedule: Q01DX009 (ip), vehicle: water.
[8] abbreviates: dose: 12.5 mg/kg/injection, schedule: Q01DX009 (ip), vehicle: water.
Where [9] appears, read: dose: 25.0 mg/kg/injection, schedule: Q01DX009 (ip), vehicle: water.
Setting [10] is: dose: 25.0 mg/kg/injection, schedule: Q01DX009 (ip), vehicle: saline.
[11] abbreviates: dose: 50.0 mg/kg/injection, schedule: Q01DX009 (ip), vehicle: saline.
Where [12] appears, read: dose: 12.5 mg/kg/injection, schedule: Q01DX009 (ip), vehicle: saline with Tween-80.
Where [13] appears, read: dose: 100.0 mg/kg/injection, schedule: Q01DX009 (ip), vehicle: saline with Tween-80.
Setting [14] is: dose: 200.0 mg/kg/injection, schedule: Q01DX009 (ip), vehicle: saline with Tween-80.
Setting [15] is: dose: 12.5 mg/kg/injection, schedule: Q01DX009 (ip), vehicle: Klucel (hydroxypropylcellulose) (HPC).
[16] abbreviates: dose: 25.0 mg/kg/injection, schedule: Q01DX009 (ip), vehicle: Klucel (hydroxypropylcellulose) (HPC).
Where [17] appears, read: dose: 50.0 mg/kg/injection, schedule: Q01DX009 (ip), vehicle: Klucel (hydroxypropylcellulose) (HPC).
The mark [18] stands for this setting: dose: 2.5 mg/kg/injection, schedule: Q01DX009 (ip), vehicle: Klucel (hydroxypropylcellulose) (HPC).
[19] abbreviates: dose: 5.0 mg/kg/injection, schedule: Q01DX009 (ip), vehicle: Klucel (hydroxypropylcellulose) (HPC).
Setting [20] is: dose: 6.25 mg/kg/injection, schedule: Q01DX009 (ip), vehicle: Klucel (hydroxypropylcellulose) (HPC).

On to `COC1C(O)C(C)OC(OC2C(Oc3cccc4c(O)c5c(=O)oc6ccc(C)c7c(=O)oc(c34)c5c67)OC(C)C(O)C2O)C1O` (centres undefined), for which the T/C runs as follows: under setting [1], 170 % of control; under setting [2], 168 % of control.

As for `CC(NC(=O)C(CO)NC(=O)CN)C(=O)O` (centres undefined), the T/C by setting is: under setting [3], 98 % of control; under setting [4], 98 % of control; under setting [5], 98 % of control.

Regarding `Nc1n[n+](-c2ccc(Cl)cc2)no1`, the T/C is 109 % of control under setting [6]; 102 % of control and 107 % of control under setting [7]; 103 % of control under setting [8]; 111 % of control and 123 % of control under setting [9]; 116 % of control (dose: 50.0 mg/kg/injection, schedule: Q01DX009 (ip), vehicle: water).

Regarding `Brc1c(NC2=NCCN2)ccc2nccnc12`, the T/C is 100 % of control (dose: 1.56 mg/kg/injection, schedule: Q01DX009 (ip), vehicle: saline); 96 % of control (dose: 3.12 mg/kg/injection, schedule: Q01DX009 (ip), vehicle: saline); 102 % of control (dose: 6.25 mg/kg/injection, schedule: Q01DX009 (ip), vehicle: saline); 94 % of control and 106 % of control (dose: 12.5 mg/kg/injection, schedule: Q01DX009 (ip), vehicle: saline); 109 % of control and 102 % of control under setting [10]; 112 % of control and 104 % of control under setting [11].

Regarding `O=CC=O`, the T/C under setting [12] is 114 % of control; the T/C under setting [1] was 110 % of control; the T/C under setting [2] was 102 % of control and 108 % of control; the T/C under setting [13] was 114 % of control and 106 % of control; the T/C under setting [14] was 120 % of control and 108 % of control.

In the case of `CN(C)N=Nc1cn[nH]c1C(N)=O`, the T/C under setting [15] was 98 % of control; the T/C under setting [16] was 91 % of control; the T/C under setting [17] was 96 % of control; the T/C under setting [3] is 87 % of control; the T/C under setting [4] was 89 % of control; the T/C under setting [5] is 86 % of control.

As for `NC(CSC(c1ccccc1)(c1ccccc1)c1ccccc1)C(=O)O` (centres undefined), the T/C was 120 % of control (dose: 4.0 mg/kg/injection, schedule: Q01DX009 (ip), vehicle: Klucel (hydroxypropylcellulose) (HPC)) and 124 % of control (dose: 16.0 mg/kg/injection, schedule: Q01DX009 (ip), vehicle: Klucel (hydroxypropylcellulose) (HPC)).

For the molecule `O=Cc1ccccc1`, the T/C reads like this: under setting [12], 101 % of control; under setting [16], 100 % of control; under setting [1], 99 % of control; under setting [17], 105 % of control; under setting [2], 98 % of control; (dose: 50.0 mg/kg/injection, schedule: Q01DX009 (oral), vehicle: Klucel (hydroxypropylcellulose) (HPC)) 95 % of control. The T/C was 98 % of control under setting [13]; 88 % of control (dose: 100.0 mg/kg/injection, schedule: Q01DX009 (oral), vehicle: Klucel (hydroxypropylcellulose) (HPC)); 86 % of control under setting [4]; 89 % of control under setting [14]; 98 % of control (dose: 200.0 mg/kg/injection, schedule: Q01DX009 (oral), vehicle: Klucel (hydroxypropylcellulose) (HPC)); 92 % of control under setting [5]. Moreover, the T/C (dose: 400.0 mg/kg/injection, schedule: Q01DX009 (oral), vehicle: Klucel (hydroxypropylcellulose) (HPC)) was 105 % of control.

As for `C=C1C(C)C2C(Cc3ccccc3)NC(=O)C23C(OC(C)=O)C=CC(C)(O)C(=O)C(C)C/C=C/C3C1O` (centres undefined), the T/C runs as follows: (dose: 0.31 mg/kg/injection, schedule: Q01DX009 (ip), vehicle: Klucel (hydroxypropylcellulose) (HPC)) 101 % of control; (dose: 0.63 mg/kg/injection, schedule: Q01DX009 (ip), vehicle: Klucel (hydroxypropylcellulose) (HPC)) 98 % of control; (dose: 1.25 mg/kg/injection, schedule: Q01DX009 (ip), vehicle: Klucel (hydroxypropylcellulose) (HPC)) 109 % of control; under setting [18], 101 % of control; under setting [19], 106 % of control.

`CCC(C)C(NC(=O)OCc1ccccc1)C(=O)NC(C(=O)O)C(C)C` (stereo not drawn) (Cbz-Ile-Val-OH; configuration not given here): the T/C under setting [3] is 91 % of control, the T/C under setting [4] was 94 % of control and the T/C under setting [5] is 94 % of control.

As to `CC(C)CC1C(=O)N2CCCC2C2(O)OC(NC(=O)C3C=C4c5cccc6[nH]cc(c56)CC4N(C)C3)(C(C)C)C(=O)N12` (centres undefined), the T/C is 120 % of control under setting [18]; 111 % of control under setting [19]; 109 % of control (dose: 10.0 mg/kg/injection, schedule: Q01DX009 (ip), vehicle: Klucel (hydroxypropylcellulose) (HPC)); 98 % of control (dose: 20.0 mg/kg/injection, schedule: Q01DX009 (ip), vehicle: Klucel (hydroxypropylcellulose) (HPC)); 105 % of control (dose: 40.0 mg/kg/injection, schedule: Q01DX009 (ip), vehicle: Klucel (hydroxypropylcellulose) (HPC)).

Turning to `Cn1cc(C2NC(=O)c3ccccc3N2)c2ccccc21` (centres undefined), the T/C is 109 % of control and 96 % of control under setting [16]; 115 % of control and 106 % of control under setting [17]; 123 % of control under setting [3].

For `C/C(=N\NC(N)=O)c1cccc(/C(C)=N/NC(N)=O)n1`, the T/C (dose: 6.25 mg/kg/injection, schedule: Q01DX009 (ip), vehicle: saline with Tween-80) is 93 % of control; the T/C under setting [12] was 96 % of control; the T/C under setting [1] was 87 % of control; the T/C under setting [2] is 90 % of control.

On to `O=S(=O)(c1cccc(N=C=S)c1)c1cccc(N=C=S)c1`, for which the T/C runs as follows: under setting [20], 109 % of control; under setting [15], 94 % of control.

With `O=C(C#Cc1ccccc1)c1ccccc1`, the T/C reads like this: (dose: 3.12 mg/kg/injection, schedule: Q01DX009 (ip), vehicle: Klucel (hydroxypropylcellulose) (HPC)) 100 % of control and 102 % of control; under setting [20], 92 % of control and 102 % of control; under setting [15], 97 % of control and 101 % of control; under setting [16], 90 % of control and 94 % of control.

In the case of `OCC1OC(n2cnc3c(SCc4ccccc4)ncnc32)C(O)C1O` (centres undefined), the T/C by setting is: (dose: 37.5 mg/kg/injection, schedule: Q01DX009 (ip), vehicle: saline with Tween-80) 171 % of control; (dose: 75.0 mg/kg/injection, schedule: Q01DX009 (ip), vehicle: saline with Tween-80) 167 % of control; (dose: 150.0 mg/kg/injection, schedule: Q01DX009 (ip), vehicle: saline with Tween-80) 182 % of control.

Consider `CC(O)CNC1c2ccccc2CC1O` (centres undefined), for which the T/C reads like this: under setting [10], 90 % of control; under setting [11], 93 % of control; (dose: 100.0 mg/kg/injection, schedule: Q01DX009 (ip), vehicle: saline) 89 % of control.

As for `NC(=O)/C=C/c1c[nH]c2nccnc12`, the T/C reads like this: (dose: 1.56 mg/kg/injection, schedule: Q01DX009 (ip), vehicle: water) 86 % of control; under setting [6], 93 % of control; under setting [7], 95 % of control; under setting [8], 102 % of control; under setting [9], 108 % of control.
